According to US20260000635A1, “THERAPEUTIC AGENT FOR GLAUCOMA COMPRISING FP AGONIST AND ß BLOCKER” (ONO PHARMACEUTICAL CO., LTD., priority 2017, published 2026):

System: male dogs (TOYO Beagle)
Assay: Intraocular pressure lowering action after instillation in dogs
Format: in vivo, dog (TOYO Beagle)
Conditions: for Time after administration exhibiting maximum intraocular pressure lowering action: 30 μL instillation, measured at 2, 4, 6, 8, 24 h; for Intraocular pressure lowering width 24 hours after administration / Maximum intraocular pressure lowering width: mean ± S.E., n=8, 30 μL instillation, Compound A 3 μg/mL, timolol 0.5% ophthalmic solution; for Maximum intraocular pressure lowering width: maximum of average lowering width over 2, 4, 6, 8, 24 h
Procedure: Compound A and a β-blocker were used as test substances. Compound A was prepared in a 3 μg/mL solution using a vehicle (an aqueous solution containing 0.3 w/v % sodium citrate, 0.5 w/v % polysorbate 80, and 0.8 w/v % sodium chloride). Timolol (trade name: Timoptol (registered trademark) 0.5% ophthalmic solution, Santen Pharmaceutical Co., Ltd.) was used as a β-blocker.
Approximately one hour before administering the vehicle and a test substance to male dogs (TOYO Beagle, 16 to 42 months old at start of use) that have been sufficiently acclimated in advance, intraocular pressure in both eyes was measured, and the intraocular pressure was set as the intraocular pressure value before instillation. Thereafter, a test substance or the vehicle was administered by instillation into the treated eyes in an amount of 30 μL each, and intraocular pressure in both eyes was measured about 2, 4, 6, 8, and 24 hours after the administration. The intraocular pressure was measured by a pneumatic applanation tonometer (Model 30 Classic, Reichert, Inc.) under the local anesthesia after instilling 0.4% oxybuprocaine hydrochloride (Benoxil (registered trademark) ophthalmic solution 0.4%, Santen Pharmaceutical Co., Ltd.), which is a local anesthetic. The measurement was performed until a stable value was obtained three times successively (a difference between continuously obtained measured values was within 0.5 mmHg).
The value obtained by subtracting the intraocular pressure value at each measurement time from the intraocular pressure value before test substance and vehicle administration was defined as the intraocular pressure lowering width, and the average value of the intraocular pressure lowering width of each individual at each measurement time was defined as the average intraocular pressure lowering width. The maximum value of the average intraocular pressure lowering width at each measurement time was defined as the maximum intraocular pressure lowering width. In addition, the average intraocular pressure lowering width 24 hours after administration was defined as the intraocular pressure lowering width 24 hours after administration. Meanwhile, in the case where there are two drug names in a group name, it means the order of administration. For example, the Compound A-timolol group means that Compound A was administered first, and timolol was administered thereafter into the same eye.

Row | Structure (SMILES) | Time after administration exhibiting maximum intraocular pressure lowering action [h] | Intraocular pressure lowering width 24 hours after administration [mmHg] | Maximum intraocular pressure lowering width [mmHg]
1 | CC(C)OC(=O)CCC[C@H]1CC[C@@H]2[C@@H](/C=C/[C@@H](O)COc3cc(F)ccc3F)[C@H](O)C[C@@H]2OC1 [Compound A-vehicle, 2-propanyl 4-{(3S,5aR,6R,7R,8aS)-6-[(1E,3R)-4-(2,5-difluorophenoxy)-3-hydroxy-1-buten-1-yl]-7-hydroxyoctahydro-2H-cyclopenta[b]oxepin-3-yl}butanoate] | 6 | 3.5 ± 0.75 | 5.8 ± 0.35
2 | CC(C)(C)NC[C@H](O)COc1nsnc1N1CCOCC1 [Vehicle-timolol, timolol] | 2 | 0.0 ± 0.56 | 2.7 ± 0.56
